Results as given in ChEMBL document CHEMBL1143470, “Synthesis and anticonvulsant activity of 7-alkoxyl-4,5-dihydro-[1,2,4]triazolo[4,3-a]quinolines” (Bioorg Med Chem Lett, 2005).

How the values were obtained:
[1] = test system: Mus musculus; assay: Concentration producing seizure after 0.5 hrs tested by MES (Maximal ElectroShock test) done after 30 min of administration in mouse
[2] = species on record: Mus musculus; assay: Concentration producing anticonvulsant drug-induced neurologic deficit after 4 hrs done by rotarod ataxia test in mouse; na=no activity; format: functional, organism-based
[3] = species on record: Mus musculus; assay: Concentration of compound producing anticonvulsant drug-induced neurologic deficit after 0.5 hrs done by rotarod ataxia test in mouse; na=no activity; format: functional, organism-based
[4] = test system: Mus musculus; assay: Concentration producing seizure after 0.5 hrs tested by ScMet (Subcutaneous pentylenetetrazole test) done after 30 min of administration of 85 mg/kg pentylenetetrazol in mouse
[5] = test system: Mus musculus; assay: Concentration producing seizure after 4 hrs tested by MES (Maximal ElectroShock test) done after 30 min of administration in mouse; na=no activity; format: functional, organism-based
[6] = test system: Mus musculus; assay: Concentration producing seizure after 4 hrs tested by ScMet (Subcutaneous pentylenetetrazole test) done after 30 min of administration of 85 mg/kg pentylenetetrazol in mouse; na=no activity; format: functional, organism-based; parameters: dose 85 mg/kg
[7] = species on record: Mus musculus; assay: Protective index (TD50/ED50) produced by compound in mouse after MES test
[8] = species on record: Mus musculus; assay: Concentration of compound producing anticonvulsant drug-inducedneurologic deficit after 0.5 hrs done by rotarod ataxia test in mouse; conditions: in vivo
[9] = test system: Mus musculus; assay: Anticonvulsant activity of compound expressed in terms of median effective dose (ED50) produced after ScMet test in mouse by i.p. administration (range 21.6-26.7); conditions: ip
[10] = test system: Mus musculus; assay: Anticonvulsant activity of compound expressed in terms of median effective dose (ED50) produced after MES test in mouse by i.p. administration (range 14.8-20.4); conditions: ip
[11] = species on record: Mus musculus; assay: Protective index (TD50/ED50) produced by compound in mouse after ScMet test
[12] = test system: Mus musculus; assay: Concentration producing seizure after 0.5 hrs tested by MES (Maximal ElectroShock test) done after 30 min of administration in mouse; na=no activity; format: functional, organism-based
[13] = test system: Mus musculus; assay: Concentration producing seizure after 0.5 hrs tested by ScMet (Subcutaneous pentylenetetrazole test) done after 30 min of administration of 85 mg/kg pentylenetetrazol in mouse; na=no activity; format: functional, organism-based; parameters: dose 85 mg/kg
[14] = test system: Mus musculus; assay: Anticonvulsant activity of compound expressed in terms of median effective dose (ED50) produced after ScMet test in mouse by i.p. administration (range 12.5-20.6); conditions: ip
[15] = test system: Mus musculus; assay: Anticonvulsant activity of compound expressed in terms of median effective dose (ED50) produced after MES test in mouse by i.p. administration (range 11.5-15.8); conditions: ip
[16] = test system: Mus musculus; assay: Anticonvulsant activity of compound expressed in terms of median effective dose (ED50) produced after ScMet test in mouse by i.p. administration; conditions: ip
[17] = test system: Mus musculus; assay: Anticonvulsant activity of compound expressed in terms of median effective dose (ED50) produced after MES test in mouse by i.p. administration (range 17-24.5); conditions: ip
[18] = test system: Mus musculus; assay: Anticonvulsant activity of compound expressed in terms of median effective dose (ED50) produced after ScMet test in mouse by i.p. administration (range 9.3-13.1); conditions: ip
[19] = test system: Mus musculus; assay: Concentration producing seizure after 4 hrs tested by MES (Maximal ElectroShock test) done after 30 min of administration in mouse
[20] = test system: Mus musculus; assay: Anticonvulsant activity of compound expressed in terms of median effective dose (ED50) produced after ScMet test in mouse by i.p. administration (range 5.7-7.9); conditions: ip
[21] = test system: Mus musculus; assay: Anticonvulsant activity of compound expressed in terms of median effective dose (ED50) produced after MES test in mouse by i.p. administration (range 12.9-10.9); conditions: ip
[22] = species on record: Mus musculus; assay: Concentration of compound producing anticonvulsant drug-inducedneurologic deficit after 0.5 hrs done by rotarod ataxia test in mouse; conditions: in vivo; remark: listed apart in the source
[23] = test system: Mus musculus; assay: Concentration producing seizure after 0.5 hrs tested by ScMet (Subcutaneous pentylenetetrazole test) done after 30 min of administration of 85 mg/kg pentylenetetrazol in mouse (no activity)
[24] = test system: Mus musculus; assay: Anticonvulsant activity of compound expressed in terms of median effective dose (ED50) produced after ScMet test in mouse by i.p. administration (range 21.4-28.2); conditions: ip
[25] = test system: Mus musculus; assay: Anticonvulsant activity of compound expressed in terms of median effective dose (ED50) produced after MES test in mouse by i.p. administration (range 19.5-28); conditions: ip
[26] = test system: Rattus norvegicus; assay: Neurotoxicity expressed as median toxic dose (TD50) produced after Rotarod ataxia test in mouse by i.p. administration (range 62.8-72.9); format: functional; conditions: ip
[27] = test system: Mus musculus; assay: Anticonvulsant activity of compound expressed in terms of median effective dose (ED50) produced after MES test in mouse by i.p. administration (range 5.5-14.1); conditions: ip
[28] = test system: Mus musculus; assay: Anticonvulsant activity of compound expressed in terms of median effective dose (ED50) produced after MES test in mouse by i.p. administration (range 247-338); conditions: ip
[29] = test system: Mus musculus; assay: Anticonvulsant activity of compound expressed in terms of median effective dose (ED50) produced after ScMet test in mouse by i.p. administration (range 123-177); conditions: ip

`Fc1ccccc1COc1ccc2c(c1)CCc1nncn1-2` was tested, and the Dose [1] was 300 mg/kg, the DOSE [2] was “No activity” and the DOSE [3] was “No activity”. The Dose [4] was 300 mg/kg, the DOSE [5] was “No activity” and the DOSE [6] was “No activity”.

With `c1ccc(COc2ccc3c(c2)CCc2nncn2-3)cc1` the Dose [1] was 30 mg/kg, the PI [7] was 3.5 and the Dose [8] was 100 mg/kg. The DOSE [2] was “No activity”, the ED50 [9] was 24 mg/kg and the Dose [4] was 100 mg/kg. The ED50 [10] was 17.3 mg/kg, the DOSE [5] was “No activity” and the PI [11] was 2.6. For the same compound, the DOSE [6] was “No activity”.

`Fc1cccc(F)c1COc1ccc2c(c1)CCc1nncn1-2` was tested, and the DOSE [2] was “No activity”, the DOSE [12] was “No activity” and the DOSE [3] was “No activity”. For the same compound, the DOSE [5] was “No activity”, the DOSE [13] was “No activity” and the DOSE [6] was “No activity”.

For `CCCCCCOc1ccc2c(c1)CCc1nncn1-2`, the Dose [1] was 30 mg/kg, the PI [7] was 2.2 and the ED50 [14] was 17.7 mg/kg. The Dose [8] was 100 mg/kg, the DOSE [2] was “No activity” and the Dose [4] was 30 mg/kg. The DOSE [5] was “No activity”, the ED50 [15] was 13.5 mg/kg and the PI [11] was 1.7. The DOSE [6] was “No activity”.

In the case of `COc1ccc(COc2ccc3c(c2)CCc2nncn2-3)cc1`, the Dose [1] is reported as 100 mg/kg, the Dose [8] is reported as 300 mg/kg and the DOSE [2] is reported as “No activity”. For the same compound, the Dose [4] was 100 mg/kg, the DOSE [5] was “No activity” and the DOSE [6] was “No activity”.

`O=C1NC(=O)C(c2ccccc2)(c2ccccc2)N1` [PHENYTOIN] gave an ED50 [16] of over 300 mg/kg and a PI [11] of under 0.22.

In the case of `Clc1ccc(COc2ccc3c(c2)CCc2nncn2-3)cc1Cl`, the DOSE [2] is reported as “No activity”, the DOSE [12] is reported as “No activity” and the DOSE [3] is reported as “No activity”. The DOSE [5] was “No activity”, the DOSE [13] was “No activity” and the DOSE [6] was “No activity”.

In the case of `CCCCOc1ccc2c(c1)CCc1nncn1-2`, the Dose [1] is reported as 100 mg/kg, the Dose [8] is reported as 100 mg/kg and the DOSE [2] is reported as “No activity”. For the same compound, the Dose [4] was 100 mg/kg, the DOSE [5] was “No activity” and the DOSE [6] was “No activity”.

Work on `Cc1ccc(COc2ccc3c(c2)CCc2nncn2-3)cc1` yielded a Dose [1] of 30 mg/kg, a PI [7] of 3.2 and an ED50 [17] of 20.5 mg/kg. The Dose [8] was 100 mg/kg, the DOSE [2] was “No activity” and the ED50 [18] was 11.1 mg/kg. For the same compound, the Dose [4] was 30 mg/kg, the DOSE [5] was “No activity” and the PI [11] was 5.9. For the same compound, the DOSE [6] was “No activity”.

In the case of `Fc1ccc(COc2ccc3c(c2)CCc2nncn2-3)cc1`, the Dose [1] is reported as 30 mg/kg, the Dose [19] is reported as 30 mg/kg and the PI [7] is reported as 4.6. For the same compound, the ED50 [20] was 6.7 mg/kg, the DOSE [2] was “No activity” and the ED50 [21] was 11.8 mg/kg. It also gave a Dose [4] of 30 mg/kg, a PI [11] of 8.1 and a Dose [22] of 100 mg/kg. The DOSE [6] was “No activity”.

For `CCCCCCCCOc1ccc2c(c1)CCc1nncn1-2`, the Dose [1] was 100 mg/kg, the DOSE [2] was “No activity” and the DOSE [3] was “No activity”. The DOSE [5] was “No activity”, the Dose [23] was 100 mg/kg and the DOSE [6] was “No activity”.

`Brc1cccc(COc2ccc3c(c2)CCc2nncn2-3)c1` was tested, and the ED50 [24] was 24.5 mg/kg, the ED50 [25] was 23.3 mg/kg and the Dose [1] was 30 mg/kg. For the same compound, the PI [7] was 4.2, the Dose [8] was 100 mg/kg and the DOSE [2] was “No activity”. The Dose [4] was 30 mg/kg, the DOSE [5] was “No activity” and the PI [11] was 4. The DOSE [6] was “No activity”.

In the case of `CCCOc1ccc2c(c1)CCc1nncn1-2`, the Dose [1] is reported as 100 mg/kg, the Dose [8] is reported as 100 mg/kg and the DOSE [2] is reported as “No activity”. The Dose [4] was 100 mg/kg, the DOSE [5] was “No activity” and the DOSE [6] was “No activity”.

`CCCCCCCCCCCCOc1ccc2c(c1)CCc1nncn1-2` was tested, and the DOSE [2] was “No activity”, the DOSE [12] was “No activity” and the DOSE [3] was “No activity”. For the same compound, the DOSE [5] was “No activity”, the DOSE [13] was “No activity” and the DOSE [6] was “No activity”.

`CCC1(c2ccccc2)C(=O)NC(=O)NC1=O` [PHENOBARBITAL] showed an ED50 [26] of 69 mg/kg.

For `NC(=O)N1c2ccccc2C=Cc2ccccc21` [CARBAMAZEPINE], the ED50 [27] was 8.8 mg/kg, the ED50 [16] was over 100 mg/kg and the PI [11] was under 0.22.

For `c1cc2c(cc1COc1ccc3c(c1)CCc1nncn1-3)OCO2`, the Dose [1] was 100 mg/kg, the Dose [8] was 300 mg/kg and the DOSE [2] was “No activity”. For the same compound, the Dose [4] was 100 mg/kg, the DOSE [5] was “No activity” and the DOSE [6] was “No activity”.

`CCCC(CCC)C(=O)O` [VALPROIC ACID] gave an ED50 [28] of 272 mg/kg and an ED50 [29] of 149 mg/kg.

With `Clc1ccc(COc2ccc3c(c2)CCc2nncn2-3)cc1` the Dose [1] was 300 mg/kg, the DOSE [2] was “No activity” and the DOSE [3] was “No activity”. For the same compound, the Dose [4] was 300 mg/kg, the DOSE [5] was “No activity” and the DOSE [6] was “No activity”.

For `CCOc1ccc2c(c1)CCc1nncn1-2`, the DOSE [2] was “No activity”, the DOSE [12] was “No activity” and the DOSE [3] was “No activity”. The DOSE [13] was “No activity”.
